# Laboratory results taken from US8119681B2, “2-[1-phenyl-5-hydroxy or methoxy-4alpha-methyl-hexahydrocyclopenta [ƒ]indazole-5-YL]ethyl phenyl derivatives as glucocorticoid receptor ligands” (Merck Sharp & Dohme Corp., priority 2006, dated 2012).
# Target: T1, human GR (Homo sapiens, UniProt P04150)
# T1 sequence (P04150 1-777): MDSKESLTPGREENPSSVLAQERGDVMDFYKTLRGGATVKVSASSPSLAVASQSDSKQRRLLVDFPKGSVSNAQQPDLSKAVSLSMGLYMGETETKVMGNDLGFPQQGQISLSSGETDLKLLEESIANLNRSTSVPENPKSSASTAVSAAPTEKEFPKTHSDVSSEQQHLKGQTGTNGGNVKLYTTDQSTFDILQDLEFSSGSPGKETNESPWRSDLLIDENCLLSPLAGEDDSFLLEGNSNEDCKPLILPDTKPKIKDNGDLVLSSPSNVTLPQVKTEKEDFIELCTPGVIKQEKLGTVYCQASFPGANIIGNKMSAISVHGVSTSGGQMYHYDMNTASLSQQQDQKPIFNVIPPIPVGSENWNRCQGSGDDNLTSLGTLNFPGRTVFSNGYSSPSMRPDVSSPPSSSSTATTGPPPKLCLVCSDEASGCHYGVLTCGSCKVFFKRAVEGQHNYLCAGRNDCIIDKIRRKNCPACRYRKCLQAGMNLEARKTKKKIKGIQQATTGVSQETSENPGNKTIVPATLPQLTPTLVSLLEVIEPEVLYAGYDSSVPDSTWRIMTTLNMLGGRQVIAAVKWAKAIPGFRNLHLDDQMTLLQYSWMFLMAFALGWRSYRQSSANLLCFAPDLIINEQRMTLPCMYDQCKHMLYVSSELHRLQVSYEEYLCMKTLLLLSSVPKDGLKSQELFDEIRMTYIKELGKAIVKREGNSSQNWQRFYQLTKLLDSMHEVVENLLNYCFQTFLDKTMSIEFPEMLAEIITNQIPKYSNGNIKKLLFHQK
# Experiment: Transrepression Assay (GITAR), TNFα-β-lactamase reporter gene in U937 cells
# Type: cell-based
# Parameters: U937 cells contain an endogenous glucocorticoid receptor (GR); endogenous in cells; host or cells: U937 cells stably transfected with the TNF-α promoter/β-lactamase reporter only
# Settings: U-937; 100 nM dexamethasone = 100% activity; read-out: maximal activity in the transrepression assay
# Procedure, shortened: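 Reporter readout used CCF2-AM loading for 70–90 min at room temperature after overnight (~18 h, 37 °C) PMA (5 ng/ml final) and LPS (100 ng/ml final) stimulation of compound-treated (30–45 min) TNFα-β-lactamase U937 cells expressing native GR. Activity was normalised to 100 nM dexamethasone repression.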
row,Emax [%],Compound
1,5 to 100,"COC(=O)Nc1c(F)cccc1CC[C@]1(O)CCC2=Cc3c(cnn3-c3ccc(F)cc3)C[C@@]21C [Example 123, methyl (2-fluoro-6-{2-[(4αS,5R)-1-(4-fluorophenyl)-5-hydroxy-4α-methyl-1,4,4α,5,6,7-hexahydrocyclopenta[f]indazol-5-yl]ethyl}phenyl)carbamate]"
2,5 to 100,"COC(=O)Nc1ccc(F)cc1CC[C@]1(O)CCC2=Cc3c(cnn3-c3ccc(F)cc3)C[C@@]21C [Example 124, methyl (4-fluoro-6-{2-[(4αS,5R)-1-(4-fluorophenyl)-5-hydroxy-4α-methyl-1,4,4α,5,6,7-hexahydrocyclopenta[f]indazol-5-yl]ethyl}phenyl)carbamate]"
3,5 to 100,"CCOC(=O)Nc1ccc(F)cc1CC[C@]1(O)CCC2=Cc3c(cnn3-c3ccc(F)cc3)C[C@@]21C [Example 125, ethyl (4-fluoro-2-{2-[(4αS,5R)-1-(4-fluorophenyl)-5-hydroxy-4α-methyl-1,4,4α,5,6,7-hexahydrocyclopenta[f]indazol-5-yl]ethyl}phenyl)carbamate]"
4,5 to 100,"C[C@]12Cc3cnn(-c4ccc(F)cc4)c3C=C1CC[C@@]2(O)CCc1cccc(F)c1NC(=O)C(F)(F)F [Example 126, 2,2,2-trifluoro-N-(2-fluoro-6-{2-[(4αS,5R)-1-(4-fluorophenyl)-5-hydroxy-4α-methyl-1,4,4α,5,6,7-hexahydrocyclopenta[f]indazol-5-yl]ethyl}phenyl)acetamide]"
5,5 to 100,"C[C@]12Cc3cnn(-c4ccc(F)cc4)c3C=C1CC[C@@]2(O)CCc1ccccc1NC(=O)C(F)(F)F [Example 127, 2,2,2-trifluoro-N-(2-{2-[(4αS,5R)-1-(4-fluorophenyl)-5-hydroxy-4α-methyl-1,4,4α,5,6,7-hexahydrocyclopenta[f]indazol-5-yl]ethyl}phenyl)acetamide]"
6,5 to 100,"CC(=O)Nc1c(F)cccc1CC[C@]1(O)CCC2=Cc3c(cnn3-c3ccc(F)cc3)C[C@@]21C [Example 128, N-(2-fluoro-6-{2-[(4αS,5R)-1-(4-fluorophenyl)-5-hydroxy-4α-methyl-1,4,4α,5,6,7-hexahydrocyclopenta[f]indazol-5-yl]ethyl}phenyl)acetamide]"
7,5 to 100,"CC(C)NC(=O)Nc1ccccc1CC[C@]1(O)CCC2=Cc3c(cnn3-c3ccc(F)cc3)C[C@@]21C [Example 129, N-(2-{2-[(4αS,5R)-1-(4-fluorophenyl)-5-hydroxy-4α-methyl-1,4,4α,5,6,7-hexahydrocyclopenta[f]indazol-5-yl]ethyl}phenyl)-N′-isopropylurea]"
8,5 to 100,"CC(C)NC(=O)Nc1c(F)cccc1CC[C@]1(O)CCC2=Cc3c(cnn3-c3ccc(F)cc3)C[C@@]21C [Example 130, N-(2-fluoro-6-{2-[(4αS,5R)-1-(4-fluorophenyl)-5-hydroxy-4α-methyl-1,4,4α,5,6,7-hexahydrocyclopenta[f]indazol-5-yl]ethyl}phenyl)-N′-isopropylurea]"
9,5 to 100,"CCNC(=O)Nc1ccc(F)cc1CC[C@]1(O)CCC2=Cc3c(cnn3-c3ccc(F)cc3)C[C@@]21C [Example 131, N-ethyl-N′-(4-fluoro-2-{2-[(4αS,5R)-1-(4-fluorophenyl)-5-hydroxy-4α-methyl-1,4,4α,5,6,7-hexahydrocyclopenta[f]indazol-5-yl]ethyl}phenyl)urea]"
10,5 to 100,"CCNC(=O)Nc1c(F)cccc1CC[C@]1(O)CCC2=Cc3c(cnn3-c3ccc(F)cc3)C[C@@]21C [Example 132, N-ethyl-N′-(2-fluoro-6-{2-[(4αS,5R)-1-(4-fluorophenyl)-5-hydroxy-4α-methyl-1,4,4α,5,6,7-hexahydrocyclopenta[f]indazol-5-yl]ethyl}phenyl)urea]"

# More lines, now with the values behind:
row,Compound,Emax [%]
1,"CN(C)C(=O)Cc1ccccc1CC[C@]1(O)CCC2=Cc3c(cnn3-c3ccc(F)cc3)C[C@@]21C [Example 108, 2-(2-{2-[(4αS,5R)-1-(4-fluorophenyl)-5-hydroxy-4α-methyl-1,4,4α,5,6,7-hexahydrocyclopenta[f]indazol-5-yl]ethyl}phenyl)-N,N-dimethylacetamide]",5 to 100
2,"C[C@]12Cc3cnn(-c4ccc(F)cc4)c3C=C1CC[C@@]2(O)CCc1ccccc1CC(=O)NC1CC1 [Example 109, N-cyclopropyl-2-(2-{2-[(4αS,5R)-1-(4-fluorophenyl)-5-hydroxy-4α-methyl-1,4,4α,5,6,7-hexahydrocyclopenta[f]indazol-5-yl]ethyl}phenyl)acetamide]",5 to 100
3,"C[C@]12Cc3cnn(-c4ccc(F)cc4)c3C=C1CC[C@@]2(O)CCc1cccc(F)c1N1CCC1=O [Example 110, 1-(2-fluoro-6-{2-[(4αS,5R)-1-(4-fluorophenyl)-5-hydroxy-4α-methyl-1,4,4α,5,6,7-hexahydrocyclopenta[f]indazol-5-yl]ethyl}phenyl)azetidin-2-one]",5 to 100
4,"C[C@]12Cc3cnn(-c4ccc(F)cc4)c3C=C1CC[C@@]2(O)CCc1ccccc1N1CCCC1=O [Example 111, 1-(2-{2-[(4αS,5R)-1-(4-fluorophenyl)-5-hydroxy-4α-methyl-1,4,4α,5,6,7-hexahydrocyclopenta[f]indazol-5-yl]ethyl}phenyl)pyrrolidin-2-one]",5 to 100
5,"C[C@]12Cc3cnn(-c4ccc(F)cc4)c3C=C1CC[C@@]2(O)CCc1cc(F)ccc1N [Example 112, (4αS,5R)-5-[2-(2-amino-5-fluorophenyl)ethyl]-1-(4-fluorophenyl)-4α-methyl-1,4,4α,5,6,7-hexahydrocyclopenta[f]indazol-5-ol]",5 to 100
6,"C[C@]12Cc3cnn(-c4ccc(F)cc4)c3C=C1CC[C@@]2(O)CCc1ccccc1NS(C)(=O)=O [Example 115, N-(2-{2-[(4αS,5R)-1-(4-fluorophenyl)-5-hydroxy-4α-methyl-1,4,4α,5,6,7-hexahydrocyclopenta[f]indazol-5-yl]ethyl}phenyl)methanesulfonamide]",5 to 100
7,"C[C@]12Cc3cnn(-c4ccc(F)cc4)c3C=C1CC[C@@]2(O)CCc1cccc(F)c1NS(=O)(=O)CC(F)(F)F [Example 116, 2,2,2-trifluoro-N-(2-fluoro-6-{2-[(4αS,5R)-1-(4-fluorophenyl)-5-hydroxy-4α-methyl-1,4,4α,5,6,7-hexahydrocyclopenta[f]indazol-5-yl]ethyl}phenyl)ethanesulfonamide]",5 to 100
8,"CN(C)S(=O)(=O)Nc1ccc(F)cc1CC[C@]1(O)CCC2=Cc3c(cnn3-c3ccc(F)cc3)C[C@@]21C [Example 117, N′-(4-fluoro-2-{2-[(4αS,5R)-1-(4-fluorophenyl)-5-hydroxy-4α-methyl-1,4,4α,5,6,7-hexahydrocyclopenta[f]indazol-5-yl]ethyl}phenyl)-N,N-dimethylsulfamide]",5 to 100
9,"C[C@]12Cc3cnn(-c4ccc(F)cc4)c3C=C1CC[C@@]2(O)CCc1ccccc1NS(=O)(=O)CC(F)(F)F [Example 118, 2,2,2-trifluoro-N-(2-{2-[(4αS,5R)-1-(4-fluorophenyl)-5-hydroxy-4α-methyl-1,4,4α,5,6,7-hexahydrocyclopenta[f]indazol-5-yl]ethyl}phenyl)ethanesulfonamide]",5 to 100
10,"C[C@]12Cc3cnn(-c4ccc(F)cc4)c3C=C1CC[C@@]2(O)CCc1cc(F)ccc1NS(=O)(=O)CC(F)(F)F [Example 119, 2,2,2-trifluoro-N-(4-fluoro-2-{2-[(4αS,5R)-1-(4-fluorophenyl)-5-hydroxy-4α-methyl-1,4,4α,5,6,7-hexahydrocyclopenta[f]indazol-5-yl]ethyl}phenyl)ethanesulfonamide]",5 to 100
11,"CC(C)S(=O)(=O)c1ccccc1CC[C@]1(O)CCC2=Cc3c(cnn3-c3ccc(F)cc3)C[C@@]21C [Example 120, (4αS,5R)-1-(4-fluorophenyl)-5-{2-[2-(isopropylsulfonyl)phenyl]ethyl}-4α-methyl-1,4,4α,5,6,7-hexahydrocyclopenta[f]indazol-5-ol]",5 to 100
12,"COC(=O)Nc1ccccc1CC[C@]1(O)CCC2=Cc3c(cnn3-c3ccc(F)cc3)C[C@@]21C [Example 121, methyl (2-{2-[(4αS,5R)-1-(4-fluorophenyl)-5-hydroxy-4α-methyl-1,4,4α,5,6,7-hexahydrocyclopenta[f]indazol-5-yl]ethyl}phenyl)carbamate]",5 to 100
13,"CCOC(=O)Nc1c(F)cccc1CC[C@]1(O)CCC2=Cc3c(cnn3-c3ccc(F)cc3)C[C@@]21C [Example 122, ethyl (2-fluoro-6-{2-[(4αS,5R)-1-(4-fluorophenyl)-5-hydroxy-4α-methyl-1,4,4α,5,6,7-hexahydrocyclopenta[f]indazol-5-yl]ethyl}phenyl)carbamate]",5 to 100
